Source: patent US11136312B2, “3,4,5-trisubstituted-1,2,4-triazoles and 3,4,5-trisubstituted-3-thio-1,2,4-triazoles and uses thereof” (Board of Trustees of Southern Illinois University, priority 2017, dated 2021)

Key:
Test in all cases: Competitive radioligand binding, 125I-Tyr-SRIF 14, membrane preparations
[1] = molecular target: human somatostatin receptor SSTR5 (Homo sapiens (Human), UniProt P35346); settings: competitive binding vs 125I-Tyr-SRIF 14, human SSTR5 membranes; read-out: SST5
Description: (§1) Respective membrane receptor preparations were prepared in assay buffer (25 mM HEPES, 10 mM MgCl2, 1 mM CaCl2, 0.5% BSA, pH=7.4) at a 1:150 dilution. […] Binding assays were performed in triplicate for each concentration of ligand in a total volume of 200 μL radioligand (25 μL ligand, 25 μL radioligand, 150 μL receptors) and incubated at room temperature for 90 minutes using a shaking table. Binding was terminated by filtration through GF/B glass fiber filters that were presoaked in 0.5% polyethyleneimine for a minimum of 4 hours. Filters were washed 9× with 1000 μL ice cold wash buffer (50 mM Tris-HCl, pH=7.4, 0.2% BSA). Filters were scored, transferred into plastic test tubes and counted in a gamma counter (Wizard2, Perkin-Elmer). Determination of the Ki for each compound was performed using non-linear regression with GraphPad PRISM-5 software (GraphPad Software, Inc., La Jolla, Calif.).

[2] = molecular target: human somatostatin receptor SSTR1 (Homo sapiens (Human), UniProt P30872); settings: competitive binding vs 125I-Tyr-SRIF 14, human SSTR1 membranes; read-out: SST1
Description: as §1

[3] = molecular target: human somatostatin receptor SSTR2A (Homo sapiens (Human), UniProt P30874); settings: competitive binding vs 125I-Tyr-SRIF 14, human SSTR2A membranes; read-out: SST2
Description: as §1

[4] = molecular target: human somatostatin receptor SSTR3 (Homo sapiens (Human), UniProt P32745); settings: competitive binding vs 125I-Tyr-SRIF 14, human SSTR3 membranes; read-out: SST3
Description: Competitive radioligand binding experiments were performed using MEMBRANE TARGET Systems (Perkin-Elmer, Boston, Mass.) for human somatostatin receptors: SSTR1 (ES-520-M400UA), SSTR2A (ES-521-M400UA), SSTR3 (ES523-M400UA), SSTR4 (ES-524-M400UA) and SSTR5 (ES-522-M400UA) receptors. (See Table 1). Respective membrane receptor preparations were prepared in assay buffer (25 mM HEPES, 10 mM MgCl2, 1 mM CaCl2, 0.5% BSA, pH=7.4) at a 1:150 dilution. Binding assays were performed using 1251-Tyr-SRIF 14 (Perkin-Elmer, NEX 3890) dissolved in 1 mM HCl. Binding assays were performed in triplicate for each concentration of ligand in a total volume of 200 μL radioligand (25 μL ligand, 25 μL radioligand, 150 μL receptors) and incubated at room temperature for 90 minutes using a shaking table. Binding was terminated by filtration through GF/B glass fiber filters that were presoaked in 0.5% polyethyleneimine for a minimum of 4 hours. Filters were washed 9× with 1000 μL ice cold wash buffer (50 mM Tris-HCl, pH=7.4, 0.2% BSA). Filters were scored, transferred into plastic test tubes and counted in a gamma counter (Wizard2, Perkin-Elmer). Determination of the Ki for each compound was performed using non-linear regression with GraphPad PRISM-5 software (GraphPad Software, Inc., La Jolla, Calif.).

Sequence of human somatostatin receptor SSTR2A (P30874 whole entry): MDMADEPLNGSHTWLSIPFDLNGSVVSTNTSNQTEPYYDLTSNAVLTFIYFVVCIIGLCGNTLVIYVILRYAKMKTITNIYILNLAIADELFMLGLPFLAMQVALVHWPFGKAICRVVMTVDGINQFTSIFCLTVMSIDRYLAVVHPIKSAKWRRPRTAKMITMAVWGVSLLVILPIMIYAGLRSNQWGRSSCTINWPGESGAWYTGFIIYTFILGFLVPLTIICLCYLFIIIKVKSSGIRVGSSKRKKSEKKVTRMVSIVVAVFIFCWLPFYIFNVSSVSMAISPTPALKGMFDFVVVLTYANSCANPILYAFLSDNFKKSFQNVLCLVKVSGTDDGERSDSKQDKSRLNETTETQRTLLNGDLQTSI

SMILES	Ki [1] [µM]	Ki [2] [µM]	Ki [3] [µM]	Ki [4] [µM]
c1ccc(CSc2nnc(-c3c[nH]c4ccccc34)n2CCCc2c[nH]cn2)cc1 [AH-1-86, 3-(4-(3-(1H-imidazol-4-yl)propyl)-5-(benzylthio)-4H-1,2,4-triazol-3-yl)-1H-indole]	> 10	> 10	–	–
Clc1cccc(Cc2nnc(CCc3c[nH]c4ccccc34)n2CCCc2c[nH]cn2)c1 [BN-VI-56, 3-(2-(4-(3-(1H-Imidazol-4-yl)propyl)-5-(3-chlorobenzyl)-4H-1,2,4-triazol-3-yl)ethyl)-1H-indole]	> 10	6.93	> 10	> 10
COc1cccc(Cc2nnc(CCc3c[nH]c4ccccc34)n2CCCc2c[nH]cn2)c1 [BN-VI-61, 3-(2-(4-(3-(1H-Imidazol-4-yl)propyl)-5-(3-methoxybenzyl)-4H-1,2,4-triazol-3-yl)ethyl)-1H-indole]	> 10	> 10	> 10	> 10
Clc1ccc(Cc2nnc(CCc3c[nH]c4ccccc34)n2CCCc2c[nH]cn2)cc1 [BN-VI-62, 3-(2-(4-(3-(1H-Imidazol-4-yl)propyl)-5-(4-chlorobenzyl)-4H-1,2,4-triazol-3-yl)ethyl)-1H-indole]	–	–	> 10	–
N[C@H](Cc1c[nH]c2ccccc12)c1nnc(Cc2cccc(Cl)c2)n1CCCc1c[nH]cn1 [BN-VI-87, (R)-1-(4-(3-(1H-Imidazol-4-yl)propyl)-5-(3-chlorobenzyl)-4H-1,2,4-triazol-3-yl)-2-(1H-indol-3-yl)ethanamine]	–	–	> 10	–
Clc1cc(Cl)cc(Cc2nnc(CCc3c[nH]c4ccccc34)n2CCCc2c[nH]cn2)c1 [BN-VI-89, 3-(2-(4-(3-(1H-Imidazol-4-yl)propyl)-5-(3,5-dichlorobenzyl)-4H-1,2,4-triazol-3-yl)ethyl)-1H-indole]	–	–	6.98	–
FC(F)(F)c1cccc(Cc2nnc(CCc3c[nH]c4ccccc34)n2CCCc2c[nH]cn2)c1 [BN-VI-97, 3-(2-(4-(3-(1H-Imidazol-4-yl)propyl)-5-(3-(trifluoromethyl)benzyl)-4H-1,2,4-triazol-3-yl)ethyl)-1H-indole]	> 10	5.31	> 10	> 10
Clc1ccccc1Cc1nnc(CCc2c[nH]c3ccccc23)n1CCCc1c[nH]cn1 [MM-I-17, 3-(2-(4-(3-(1H-Imidazol-4-yl)propyl)-5-(2-chlorobenzyl)-4H-1,2,4-triazol-3-yl)ethyl)-1H-indole]	> 10	> 10	> 10	> 10
COc1ccccc1Cc1nnc(CCc2c[nH]c3ccccc23)n1CCCc1c[nH]cn1 [MM-I-21, 3-(2-(4-(3-(1H-Imidazol-4-yl)propyl)-5-(2-methoxybenzyl)-4H-1,2,4-triazol-3-yl)ethyl)-1H-indole]	> 10	> 10	> 10	> 10
c1ccc(-c2ccc(Cc3nnc(CCc4c[nH]c5ccccc45)n3CCCc3c[nH]cn3)cc2)cc1 [MM-I-26, 3-(2-(4-(3-(1H-Imidazol-4-yl)propyl)-5-([1,1′-biphenyl]-4-ylmethyl)-4H-1,2,4-triazol-3-yl)ethyl)-1H-indole]	–	–	> 10	–
FC(F)(F)Oc1cccc(Cc2nnc(CCc3c[nH]c4ccccc34)n2CCCc2c[nH]cn2)c1 [MM-I-36, 3-(2-(4-(3-(1H-imidazol-4-yl)propyl)-5-(3-(trifluoromethoxy)benzyl)-4H-1,2,4-triazol-3-yl)ethyl)-1H-indole]	–	4.08	> 10	–
O=[N+]([O-])c1cccc(Cc2nnc(CCc3c[nH]c4ccccc34)n2CCCc2c[nH]cn2)c1 [MM-I-43, 3-(2-(4-(3-(1H-Imidazol-4-yl)propyl)-5-(3-nitrobenzyl)-4H-1,2,4-triazol-3-yl)ethyl)-1H-indole]	–	–	> 10	–
c1ccc(COc2cccc(Cc3nnc(CCc4c[nH]c5ccccc45)n3CCCc3c[nH]cn3)c2)cc1 [MM-I-53, 3-(2-(4-(3-(1H-imidazol-4-yl)propyl)-5-(3-(benzyloxy)benzyl)-4H-1,2,4-triazol-3-yl)-ethyl)-1H-indole]	–	–	> 10	–
N#Cc1cccc(Cc2nnc(CCc3c[nH]c4ccccc34)n2CCCc2c[nH]cn2)c1 [MM-I-63, 3-((4-(3-(1H-imidazol-4-yl)propyl)-5-(2-(1H-indol-3-yl)ethyl)-4H-1,2,4-triazol-3-yl)methyl)benzonitrile]	–	–	> 10	–
FC(F)(F)c1cccc(Cc2nnc(Cc3c[nH]c4ccccc34)n2CCCc2c[nH]cn2)c1 [MM-I-66, 3-((4-(3-(1H-imidazol-4-yl)propyl)-5-(3-(trifluoromethyl)benzyl)-4H-1,2,4-triazol-3-yl)methyl)-1H-indole]	> 10	0.588	2.33	> 10
CS(=O)(=O)c1cccc(Cc2nnc(Cc3c[nH]c4ccccc34)n2CCCc2c[nH]cn2)c1 [MM-I-72, 3-((4-(3-(1H-imidazol-4-yl)propyl)-5-(3-(methylsulfonyl)benzyl)-4H-1,2,4-triazol-3-yl)methyl)-1H-indole]	–	0.661	> 10	–
Fc1ccc2c(Cc3nnc(Cc4cccc(Br)c4)n3CCCc3c[nH]cn3)c[nH]c2c1 [MM-I-83, 3-((4-(3-(1H-imidazol-4-yl)propyl)-5-(3-bromobenzyl)-4H-1,2,4-triazol-3-yl)methyl)-6-fluoro-1H-indole]	–	–	2.08	–
Fc1ccc2c(Cc3nnc(Cc4cccc(C(F)(F)F)c4)n3CCCc3c[nH]cn3)c[nH]c2c1 [MM-I-87, 3-((4-(3-(1H-imidazol-4-yl)propyl)-5-(3-(trifluoromethyl)benzyl)-4H-1,2,4-triazol-3-yl)methyl)-6-fluoro-1H-indole]	–	–	3.28	–
Fc1ccc2c(Cc3nnc(Cc4ccccc4)n3CCCc3c[nH]cn3)c[nH]c2c1 [MM-I-89, 3-((4-(3-(1H-imidazol-4-yl)propyl)-5-benzyl-4H-1,2,4-triazol-3-yl)methyl)-6-fluoro-1H-indole]	–	–	> 10	–
Fc1ccc(Cc2nnc(Cc3c[nH]c4ccccc34)n2CCCc2c[nH]cn2)cc1 [SK-I-16, 3-((4-(3-(1H-imidazol-4-yl)propyl)-5-(4-fluorobenzyl)-4H-1,2,4-triazol-3-yl)methyl)-1H-indole]	–	–	> 10	–
Clc1ccc(Cc2nnc(Cc3c[nH]c4ccccc34)n2CCCc2c[nH]cn2)cc1 [SK-I-22, 3-((4-(3-(1H-imidazol-4-yl)propyl)-5-(4-chlorobenzyl)-4H-1,2,4-triazol-3-yl)methyl)-1H-indole]	–	–	7.69	–
COc1ccc(Cc2nnc(CCc3c[nH]c4ccccc34)n2CCCc2c[nH]cn2)cc1 [SM-I-29, 3-(2-(4-(3-(1H-Imidazol-4-yl)propyl)-5-(4-methoxybenzyl)-4H-1,2,4-triazol-3-yl)ethyl)-1H-indole]	–	–	> 10	–
Cn1cc(CCc2nnc(Cc3cccc(C(F)(F)F)c3)n2CCCc2c[nH]cn2)c2ccccc21 [SM-I-76, 3-(2-(4-(3-(1H-imidazol-4-yl)propyl)-5-(3-(trifluoromethyl)benzyl)-4H-1,2,4-triazol-3-yl)ethyl)-1-methyl-1H-indole]	–	–	> 10	–
CS(=O)(=O)c1cccc(Cc2nnc(CCc3c[nH]c4ccccc34)n2CCCc2c[nH]cn2)c1 [SM-I-92, 3-(2-(4-(3-(1H-imidazol-4-yl)propyl)-5-(3-(methylsulfonyl)benzyl)-4H-1,2,4-triazol-3-yl)ethyl)-1H-indole]	–	–	> 10	–
